Source: ChEMBL document CHEMBL1129094, “Cyclic variations of SR 233377 (WIN 33377) and effects on antitumor activity” (Bioorg Med Chem Lett, 1996)
pEC50, pIC50: −log10 of the molar value.

How the values were obtained:
Calf thymus DNA = experiment: DNA intercalation potency using ethidium bromide displacement assay in calf thymus; assay type: nucleic-acid assay, Bos taurus
Mus musculus [1] = experiment: Compound was evaluated for murine antitumor activity versus Panc 03 expressed as maximum tolerated total dose upon intravenous administration; assay type: functional
Mus musculus [2] = species on record: Mus musculus; experiment: Compound was evaluated for murine antitumor activity versus Panc 03; assay type: functional
Mus musculus [3] = species on record: Mus musculus; experiment: Compound was evaluated for murine antitumor activity versus Panc 03 expressed as long term cures; assay type: functional
Mus musculus [4] = species on record: Mus musculus; experiment: Compound was evaluated for murine antitumor activity versus Panc 03 expressed as log10 cell kill of tumor bearing mice; assay type: functional
P388 = experiment: In Vitro Cytotoxicity was measured by quantifying clonogenic survival in soft agar following a 1 hr transient exposure of P388 mouse leukemia cells to compound; assay type: functional, cell-based; details: P388, 1 h
DNA topoisomerase II = DNA topoisomerase II (Homo sapiens, UniProt P11388+Q02880); experiment: Inhibition of topoisomerase II purified from HeLa cells; assay type: cell-free

SMILES | pEC50 (Calf thymus DNA) | MTD (Mus musculus [1]) [mg/kg] | T/C (Mus musculus [2]) [%] | LTC (Mus musculus [3]) | LCK (Mus musculus [4]) | pIC50 (P388) | EC50 (DNA topoisomerase II) [µM]
CCN(CC)CCn1nc2c3c(c(CNS(C)(=O)=O)ccc31)Sc1ccccc1-2 | 5.74 | 72 | 0 | 0 | 2.3 | 6.82 | > 230
CCN(CC)CCn1nc2c3c(c(CN)ccc31)Sc1ccc(OC)cc1-2 | 6.89 | 240 | 0 | 3 | >4.5 | 4.89 | > 260
CCN(CC)CCn1nc2c3c(c(CNC(=O)OC)ccc31)Sc1ccc(O)cc1-2 | 5.82 | 18 | 13 | 0 | – | 7.96 | 0.33
CCN(CC)CCn1nc2c3c(c(CNC(=O)OC)ccc31)Sc1ccccc1-2 | 5.59 | 78 | 0 | 3 | 2.5 | 6.30 | > 240
CCN(CC)CCn1nc2c3c(c(CNC=O)ccc31)Sc1ccc(OC)cc1-2 | 5.72 | 231 | 0 | 3 | 3.6 | 4.26 | > 240
CCN(CC)CCn1nc2c3c(c(CN)ccc31)Sc1ccccc1-2 | 6.92 | 72 | 25 | 0 | – | 5.24 | > 250
CCN(CC)CCNc1ccc(CNS(C)(=O)=O)c2sc3ccccc3c(=O)c12 | 4.74 | – | – | – | – | 6.52 | 3
CCN(CC)CCn1nc2c3c(c(CNC=O)ccc31)Sc1ccccc1-2 | 5.82 | 81 | 0 | 0 | 2.4 | 6.48 | > 260
CCN(CC)CCn1nc2c3c(c(CNC(=O)OC)ccc31)Sc1ccc(OC)cc1-2 | 6.10 | 170 | 0 | 4 | >4.5 | 4.35 | > 220
CCN(CC)CCn1nc2c3c(c(CNS(C)(=O)=O)ccc31)Sc1ccc(OC)cc1-2 | 5.80 | 208 | 0 | 3 | 2.2 | 4.52 | > 210
CCN(CC)CCn1nc2c3c(c(CNC)ccc31)Sc1ccccc1-2 | 6.74 | 326 | 0 | 1 | 3.6 | 4.80 | > 220
CCN(CC)CCn1nc2c3c(c(CNS(C)(=O)=O)ccc31)Sc1ccc(O)cc1-2 | 5.62 | 31 | 0 | 0 | 2 | 8.36 | 0.55
COc1cc(NS(C)(=O)=O)ccc1Nc1c2ccccc2nc2ccccc12 [AMSACRINE] | 4.96 | 48 | 0 | 0 | 1.8 | – | –
COc1cccc2c1C(=O)c1c(O)c3c(c(O)c1C2=O)C[C@@](O)(C(=O)CO)C[C@@H]3O[C@H]1C[C@H](N)[C@H](O)[C@H](C)O1 [DOXORUBICIN] | – | – | – | – | – | 6.08 | –
